In patent US20080119488A1, “Modulators Of Nuclear Receptors” (EXELIXIS, INC., priority 2004, published 2008):

Target: T1, LXRα or LXRβ
T1 construct: fused on or other part: N-terminal poly-His tag from the pBacPakhis1 vector
Test: Saturation binding of [3H] 24,25 epoxycholesterol (EC) to the receptor
Parameters: species or system human
Details: as determined by saturation binding; typical value used for the Cheng and Prusoff equation
Experimental: The SPA assay measures the radioactive signal generated by the binding of ^3H-24,25-epoxycholesterol to LXRα or LXRβ. The basis of the assay is the use of SPA beads containing a scintillant, such that when binding to the receptor brings the labeled ligand into proximity with the bead, the energy from the label stimulates the scintillant to emit light. The light is measured using a standard microplate scintillation reader. The ability of a ligand to bind to a receptor can be measured by assessing the degree to which the compound can compete off a radiolabelled ligand with known affinity for the receptor.
For this assay, typically the Concentration of Ligand=50 nM and the Kd of EC for the receptor is 200 nM as determined by saturation binding.

For C[C@H](CCC1OC1(C)C)[C@H]1CC[C@H]2[C@@H]3CC=C4C[C@@H](O)CC[C@]4(C)[C@H]3CC[C@]12C (stereo partly shown) [EC, 24,25 Epoxycholesterol], which Kd is on record?
The Kd was 200 nM.
